Data published in patent US20250092016A1, “COMPOUNDS AND COMPOSITIONS FOR THE TREATMENT OF CORONAVIRAL RELATED DISEASES” (priority 2021, published 2025).

molecular target: SARS-CoV-2 main protease (M^pro) (Severe acute respiratory syndrome coronavirus 2, UniProt P0DTD1); experiment: Rapid-Fire MS Biochemical Assay measuring Mpro activity (5 nM Mpro); details: Rapid-Fire Assay IC50, Table 1B, Mpro inhibition, 5 μM substrate peptide, 120 min

Row | SMILES | IC50 [nM]
1 | CC1CC(N2CC(C#N)N(c3cncc4ccccc34)C2=O)C1 (single isomer, unassigned) [Compound 120c] | > 1000
2 | N#CC1CN(C2CCC(F)CC2)C(=O)N1c1cncc2ccccc12 (single isomer, unassigned) [Compound 121b] | < 20
3 | N#C[C@H]1CN(C2CN(S(=O)(=O)C3CC3)C2)C(=O)N1c1cncc2ccccc12 (single isomer, unassigned) [Compound 131a] | 20 to 200
4 | N#C[C@@H]1CN(C2CN(S(=O)(=O)C3CC3)C2)C(=O)N1c1cncc2ccccc12 (single isomer, unassigned) [Compound 131b] | > 1000

same assay, conditions: Table 1B, Mpro inhibition, 5 μM substrate peptide, 120 min, read-out: Rapid-Fire Assay IC50

Row | SMILES | IC50 [nM]
5 | COc1ccc(Cl)cc1N1C[C@H](C#N)N(c2cncc3ccccc23)C1=O (single isomer, unassigned) [Compound 115a] | < 20
6 | COc1ccc(Cl)cc1N1C[C@@H](C#N)N(c2cncc3ccccc23)C1=O (single isomer, unassigned) [Compound 115b] | > 1000
7 | Cc1ccc(C#N)c(N2C[C@H](C#N)N(c3cncc4ccccc34)C2=O)c1 (single isomer, unassigned) [Compound 116a] | < 20
8 | Cc1ccc(C#N)c(N2C[C@@H](C#N)N(c3cncc4ccccc34)C2=O)c1 (single isomer, unassigned) [Compound 116b] | 200 to 1000
9 | N#Cc1cnc(C(F)(F)F)cc1N1C[C@H](C#N)N(c2cncc3ccccc23)C1=O (single isomer, unassigned) [Compound 117a] | < 20
10 | N#Cc1cnc(C(F)(F)F)cc1N1C[C@@H](C#N)N(c2cncc3ccccc23)C1=O (single isomer, unassigned) [Compound 117b] | 200 to 1000
11 | Cc1c[nH]c(N2C[C@H](C#N)N(c3cncc4ccccc34)C2=O)n1 (single isomer, unassigned) [Compound 118a] | 200 to 1000
12 | Cc1c[nH]c(N2C[C@@H](C#N)N(c3cncc4ccccc34)C2=O)n1 (single isomer, unassigned) [Compound 118b] | > 1000
13 | N#C[C@H]1CN(c2nc(Cl)c[nH]2)C(=O)N1c1cncc2ccccc12 (single isomer, unassigned) [Compound 119a] | 20 to 200
14 | N#C[C@@H]1CN(c2nc(Cl)c[nH]2)C(=O)N1c1cncc2ccccc12 (single isomer, unassigned) [Compound 119b] | > 1000
15 | CC1CC(N2CC(C#N)N(c3cncc4ccccc34)C2=O)C1 (single isomer, unassigned) [Compound 120a] | < 20
16 | CC1CC(N2CC(C#N)N(c3cncc4ccccc34)C2=O)C1 (single isomer, unassigned) [Compound 120d] | > 1000
17 | N#CC1CN(C2CCC(F)CC2)C(=O)N1c1cncc2ccccc12 (single isomer, unassigned) [Compound 121a] | < 20
18 | N#CC1CN(C2CCC(F)CC2)C(=O)N1c1cncc2ccccc12 (single isomer, unassigned) [Compound 121d] | > 1000
19 | N#C[C@H]1CN(C2CC3(CCC3)C2)C(=O)N1c1cncc2ccccc12 (single isomer, unassigned) [Compound 122a] | < 20
20 | N#C[C@@H]1CN(C2CC3(CCC3)C2)C(=O)N1c1cncc2ccccc12 (single isomer, unassigned) [Compound 122b] | > 1000
21 | N#C[C@H]1CN(C2CC3(CC3)C2)C(=O)N1c1cncc2ccccc12 (single isomer, unassigned) [Compound 125a] | < 20
22 | N#C[C@@H]1CN(C2CC3(CC3)C2)C(=O)N1c1cncc2ccccc12 (single isomer, unassigned) [Compound 125b] | > 1000
23 | CC1(C)CC(N2C[C@H](C#N)N(c3cncc4ccccc34)C2=O)C1 (single isomer, unassigned) [Compound 126a] | < 20
24 | CC1(C)CC(N2C[C@@H](C#N)N(c3cncc4ccccc34)C2=O)C1 (single isomer, unassigned) [Compound 126b] | > 1000
25 | N#C[C@H]1CN(C2CC3(C2)CC(F)(F)C3)C(=O)N1c1cncc2ccccc12 (single isomer, unassigned) [Compound 127a] | < 20
26 | N#C[C@@H]1CN(C2CC3(C2)CC(F)(F)C3)C(=O)N1c1cncc2ccccc12 (single isomer, unassigned) [Compound 127b] | > 1000
27 | N#C[C@H]1CN(C2CN(S(=O)(=O)C(F)(F)F)C2)C(=O)N1c1cncc2ccccc12 (single isomer, unassigned) [Compound 129a] | 20 to 200
28 | N#C[C@@H]1CN(C2CN(S(=O)(=O)C(F)(F)F)C2)C(=O)N1c1cncc2ccccc12 (single isomer, unassigned) [Compound 129b] | > 1000

Row | SMILES | IC50 [nM]
29 | CS(=O)(=O)N1CC(N2C[C@H](C#N)N(c3cncc4ccccc34)C2=O)C1 (single isomer, unassigned) [Compound 130a] | 200 to 1000
30 | CS(=O)(=O)N1CC(N2C[C@@H](C#N)N(c3cncc4ccccc34)C2=O)C1 (single isomer, unassigned) [Compound 130b] | > 1000
31 | N#C[C@H]1CN(C2CN(CC(F)(F)F)C2)C(=O)N1c1cncc2ccccc12 (single isomer, unassigned) [Compound 133a] | < 20
32 | N#C[C@@H]1CN(C2CN(CC(F)(F)F)C2)C(=O)N1c1cncc2ccccc12 (single isomer, unassigned) [Compound 133b] | 20 to 200
33 | CC(=O)N1CC(N2C[C@H](C#N)N(c3cncc4ccccc34)C2=O)C1 (single isomer, unassigned) [Compound 134a] | 200 to 1000
34 | CC(=O)N1CC(N2C[C@@H](C#N)N(c3cncc4ccccc34)C2=O)C1 (single isomer, unassigned) [Compound 134b] | > 1000
35 | N#C[C@H]1CN(C2CN(C3CC3)C2)C(=O)N1c1cncc2ccccc12 (single isomer, unassigned) [Compound 136a] | < 20
36 | N#C[C@@H]1CN(C2CN(C3CC3)C2)C(=O)N1c1cncc2ccccc12 (single isomer, unassigned) [Compound 136b] | > 1000
37 | N#C[C@H]1CN(C23CC(C(F)(F)F)(C2)C3)C(=O)N1c1cncc2ccccc12 (single isomer, unassigned) [Compound 137a] | < 20
38 | N#C[C@@H]1CN(C23CC(C(F)(F)F)(C2)C3)C(=O)N1c1cncc2ccccc12 (single isomer, unassigned) [Compound 137b] | > 1000
39 | N#C[C@H]1CN(C2CCC(F)(F)CC2)C(=O)N1c1cncc2ccccc12 (single isomer, unassigned) [Compound 138a] | < 20
40 | N#C[C@@H]1CN(C2CCC(F)(F)CC2)C(=O)N1c1cncc2ccccc12 (single isomer, unassigned) [Compound 138b] | > 1000
41 | N#C[C@H]1CN(C23CC(F)(C2)C3)C(=O)N1c1cncc2ccccc12 (single isomer, unassigned) [Compound 139a] | < 20
42 | N#C[C@@H]1CN(C23CC(F)(C2)C3)C(=O)N1c1cncc2ccccc12 (single isomer, unassigned) [Compound 139b] | > 1000
43 | CC(C)(C)CN1C[C@H](C#N)N(c2cncc3ccccc23)C1=O (single isomer, unassigned) [Compound 140a] | 20 to 200
44 | CC(C)(C)CN1C[C@@H](C#N)N(c2cncc3ccccc23)C1=O (single isomer, unassigned) [Compound 140b] | > 1000
45 | N#C[C@H]1CN(C2CCC(F)(F)C2)C(=O)N1c1cncc2ccccc12 (single isomer, unassigned) [Compound 141a, (R)-1-((S)-3,3-difluorocyclopentyl)-3-(isoquinolin-4-yl)-2-oxoimidazolidine-4-carbonitrile or (R)-1-((R)-3,3-difluorocyclopentyl)-3-(isoquinolin-4-yl)-2-oxoimidazolidine-4-carbonitrile] | 20 to 200
46 | N#C[C@@H]1CN([C@H]2CCC(F)(F)C2)C(=O)N1c1cncc2ccccc12 (single isomer, unassigned) [Compound 141b, (S)-1-((S)-3,3-difluorocyclopentyl)-3-(isoquinolin-4-yl)-2-oxoimidazolidine-4-carbonitrile or (S)-1-((R)-3,3-difluorocyclopentyl)-3-(isoquinolin-4-yl)-2-oxoimidazolidine-4-carbonitrile] | > 1000
47 | N#C[C@@H]1CN(C2CCC(F)(F)C2)C(=O)N1c1cncc2ccccc12 (single isomer, unassigned) [Compound 141c, (S)-1-((S)-3,3-difluorocyclopentyl)-3-(isoquinolin-4-yl)-2-oxoimidazolidine-4-carbonitrile or (S)-1-((R)-3,3-difluorocyclopentyl)-3-(isoquinolin-4-yl)-2-oxoimidazolidine-4-carbonitrile] | > 1000
48 | N#C[C@H]1CN([C@H]2CCC(F)(F)C2)C(=O)N1c1cncc2ccccc12 (single isomer, unassigned) [Compound 141d, (R)-1-((S)-3,3-difluorocyclopentyl)-3-(isoquinolin-4-yl)-2-oxoimidazolidine-4-carbonitrile or (R)-1-((R)-3,3-difluorocyclopentyl)-3-(isoquinolin-4-yl)-2-oxoimidazolidine-4-carbonitrile] | 20 to 200
49 | N#CC1CN(C2CCCC(F)(F)C2)C(=O)N1c1cncc2ccccc12 (stereo not shown) [Compound 29, 1-(3,3-difluorocyclohexyl)-3-(isoquinolin-4-yl)-2-oxoimidazolidine-4-carbonitrile] | 20 to 200
50 | CC(C)(O)c1ccc2cncc(N3C(=O)N(c4cccc(Cl)c4)CC3C#N)c2c1 (stereo not shown) [Compound 34, 1-(3-chlorophenyl)-3-(6-(2-hydroxypropan-2-yl)isoquinolin-4-yl)-2-oxoimidazolidine-4-carbonitrile] | < 20
51 | N#CC1CN(c2cccc(Cl)c2)C(=O)N1c1cncc2ccc(C(N)=O)cc12 (stereo not shown) [Compound 35, 4-(3-(3-chlorophenyl)-5-cyano-2-oxoimidazolidin-1-yl)isoquinoline-6-carboxamide] | < 20
52 | COCCNC(=O)c1ccc2cncc(N3C(=O)N(c4cccc(Cl)c4)CC3C#N)c2c1 (stereo not shown) [Compound 36, 4-(3-(3-chlorophenyl)-5-cyano-2-oxoimidazolidin-1-yl)-N-(2-methoxyethyl)isoquinoline-6-carboxamide] | 20 to 200
